5 compounds from ChEMBL document CHEMBL5034031, “Discovery of Next-Generation Tropomyosin Receptor Kinase Inhibitors for Combating Multiple Resistance Associated with Protein Mutation” (J Med Chem, 2021) can be followed below.

In general, half-life refers to the time in which the quantity being followed falls by half. By IC50 is commonly meant the concentration that gives 50% inhibition.

A short description of data set [1]: Metabolic stability in human liver microsomes assessed as half life at 1 uM measured upto 90 mins in presence of NADPH regenerating system by LC-MS/MS analysis. The class given is ADME, Microsome. On the technique in general: Liver microsomes are vesicles of endoplasmic reticulum, rich in cytochrome P450 enzymes.
The test system of data set [2] is BaF3. Kind of data set: animal or person. Format: functional. Particulars: Mus musculus, BaF3, po; read-out: TGI.
The test system of data set [3] is BaF3. Briefly: animal or person. The class given is functional. To be noted: Mus musculus, BaF3, po; read-out: TGI. This is another data set of the same source.
For data set [4], the system named is BaF3. Kind of data set: Antiproliferative activity against mouse BaF3 cells transfected with ETV6-wild type TRKC assessed as cell viability incubated for 72 hrs by CCK8 assay. Format: functional, cell-based. To be noted: BaF3, 72 h.
For data set [5], the system named is BaF3. Kind of data set: Antiproliferative activity against mouse BaF3 cells transfected with ETV6-wild type TRKB assessed as cell viability incubated for 72 hrs by CCK8 assay. The class given is functional, cell-based. To be noted: BaF3, 72 h. A general note: Formazan colour is commonly taken as a measure of viable cells.
The test system of data set [6] is BaF3. Kind of data set: Antiproliferative activity against mouse BaF3 cells transfected with ETV6-wild type TRKA assessed as cell viability incubated for 72 hrs by CCK8 assay. Format: functional, cell-based. Particulars: BaF3, 72 h.
Data set [7] has as its system BaF3. Format: functional, cell-based. Particulars: Mus musculus, BaF3, 72 h.

As to `Cn1cc(-c2cnn3ccc(N4CCC[C@@H]4c4cc(F)ccc4OCC(F)F)nc23)cn1`, in data set [1], the half-life at 1 µM was determined as 8.3 min.
Take `O=C(Nc1cnn2ccc(N3CCC[C@@H]3c3cc(F)ccc3F)nc12)N1CC[C@H](O)C1` [LAROTRECTINIB]: the half-life at 1 µM in data set [1] stood at 365 min. Besides, in the data set on BaF3 [2], the inhibition in vivo at 15 mg/kg worked out at 70%.
For the compound `C[C@@H](Nc1ccn2ncc(-c3cnn(C)c3)c2n1)c1cc(F)ccc1OCC(F)F`, the half-life at 1 µM in data set [1] is 32.4 min.
On the same count and under the same terms, the result for `Cn1cc(-c2cnn3ccc(N4CCC[C@@H]4c4cc(F)ccc4F)nc23)cn1` reads 3 min.
Consider `C[C@@H]1CCc2ncc(F)cc2[C@H]2CCCN2c2ccn3ncc(c3n2)C(=O)N1` [SELITRECTINIB], for which, in the data set on BaF3 [3], the inhibition in vivo at 100 mg/kg is 64%. In addition, the IC50 amounted to 1.6 nM in the data set on BaF3 [4], 1.4 nM in the data set with BaF3 [5], 1.1 nM in the data set with BaF3 [6] and 72.6 nM in the data set on BaF3 [7].
